Data reported in patent publication US20260200939A1, “MOLECULAR GLUE DEGRADER COMPOUNDS AND USES THEREOF” (Novartis AG, priority 2022, published 2026).

How the values were obtained:
[1] = molecular target: T1, BRD4 long (Homo sapiens, UniProt O60885); experiment: BRD4 (long) degradation assay, Western blotting; format: cell-based
T1 construct: endogenous in cells; host or cells: HEK293T
Procedure: (§1) C33A cells were purchased from American Type Culture Collection (ATCC) and were cultured in Dulbecco's Modified Eagle Medium (DMEM) containing 10% (v/v) fetal bovine serum (FBS) and maintained at 37° C. with 5% CO2. 22RV1 cells were purchased from the ATCC and were cultured in RPMI-1640 Medium containing 10% (v/v) FBS and maintained at 37° C. with 5% CO2. HEK293T cells were obtained from the UC Berkeley Cell Culture Facility and were cultured in DMEM containing 10% (v/v) FBS and maintained at 37° C. with 5% CO2. K562 cells were obtained from the UC Berkeley Cell Culture Facility and were cultured in Iscove's Modified Dulbecco's Medium (IMDM) containing 10% (v/v) FBS and maintained at 37° C. with 5% CO2. MV-4-11 cells were obtained from the ATCC and were cultured in IMDM containing 10% (v/v) FBS and maintained at 37° C. with 5% CO2. A549 cells were obtained from the ATCC and were cultured in F-12K Medium containing 10% (v/v) FBS and maintained at 37° C. with 5% CO2. Mino cells were obtained from the ATCC and were cultured in RPMI-1640 Medium containing 10% (v/v) FBS and maintained at 37° C. with 5% CO2. LNCaP cells were obtained from the ATCC and were cultured in RPMI-1640 Medium containing 10% (v/v) FBS and maintained at 37° C. with 5% CO2. Unless otherwise specified, all cell culture materials were purchased from Gibco. It is not known whether HEK293T cells are from male or female origin.
(§2) Cells were washed twice with cold PBS, scraped, and pelleted by centrifugation (700 g, 5 min, 4° C.). Pellets were resuspended in PBS, sonicated, clarified by centrifugation (12,000 g, 10 min, 4° C.), and lysate was transferred to new low-adhesion microcentrifuge tubes. Proteome concentrations were determined using BCA assay and lysate was diluted to appropriate working concentrations.
(§3) Proteins were resolved by SDS/PAGE and transferred to nitrocellulose membranes using the Trans-Blot Turbo transfer system (Bio-Rad). Membranes were blocked with 5% BSA in Tris-buffered saline containing Tween 20 (TBS-T) solution for 30 min at RT, washed in TBS-T, and probed with primary antibody diluted in recommended diluent per manufacturer overnight at 4° C. After 3 washes with TBS-T, the membranes were incubated in the dark with IR680- or IR800-conjugated secondary antibodies at 1:10,000 dilution in 5% BSA in TBS-T at RT for 1 h. After 3 additional washes with TBST, blots were visualized using an Odyssey Li-Cor fluorescent scanner. The membranes were stripped using ReBlot Plus Strong Antibody Stripping Solution (EMD Millipore) when additional primary antibody incubations were performed. Antibodies used in this study were CDK4 (Abcam ab108357), Vinculin (Abcam ab129002), GAPDH (Cell Signaling Technology 14C10), RNF126 (Santa Cruz Biotechnology sc-376005), BRD4 (Abcam ab128874), Beta Actin (Cell Signaling Technology 13E5), PDE5 (Abcam ab259945), AR-V7 (Abcam ab273500), c-Abl (Santa Cruz Biotechnology sc-23), SMARCA2 (Abcam ab240648), LRRK2 (Abcam ab133474), BTK (Cell Signaling Technology D3H5), Androgen Receptor (Abcam ab133273).

[2] = molecular target: T2, BRD4 short (Homo sapiens, UniProt O60885); experiment: BRD4 (short) degradation assay, Western blotting; format: cell-based
T2 construct: endogenous in cells; host or cells: HEK293T
Procedure: as §1, §2, §3

[3] = first value of cell (long/short)
[4] = second value of cell (long/short)
[5] = first value of cell, range with lower bound in nM and upper bound in μM
[6] = second value of cell, range with lower bound in nM and upper bound in μM

SMILES	DC50 [1, 3]	DC50 [2, 4]	DC50 [1, 5]	DC50 [2, 6]
COc1ccc(C(=O)/C=C/C(=O)N2CC3(CCN(C(=O)C[C@@H]4N=C(c5ccc(Cl)cc5)c5c(sc(C)c5C)-n5c(C)nnc54)CC3)C2)cc1 [Compound 227, (S,E)-1-(7-(2-(4-(4-chlorophenyl)-2,3,9-trimethyl-6H-thieno[3,2-f][1,2,4]triazolo[4,3-a][1,4]diazepin-6-yl)acetyl)-2,7-diazaspiro[3.5]nonan-2-yl)-4-(4-methoxyphenyl)but-2-ene-1,4-dione]	10 to 100 nM	10 to 100 nM		
COc1ccc(C(=O)/C=C/C(=O)N2CC3CCC(C2)N(C(=O)C[C@@H]2N=C(c4ccc(Cl)cc4)c4c(sc(C)c4C)-n4c(C)nnc42)C3)cc1 (stereo partly drawn) [Compound 228, (E)-1-(6-(2-((S)-4-(4-chlorophenyl)-2,3,9-trimethyl-6H-thieno[3,2-f][1,2,4]triazolo[4,3-a][1,4]diazepin-6-yl)acetyl)-3,6-diazabicyclo[3.2.2]nonan-3-yl)-4-(4-methoxyphenyl)but-2-ene-1,4-dione]	10 to 100 nM	10 to 100 nM		
COc1ccc(C(=O)/C=C/C(=O)N2CC3CC(C2)CN(C(=O)C[C@@H]2N=C(c4ccc(Cl)cc4)c4c(sc(C)c4C)-n4c(C)nnc42)C3)cc1 [Compound 229, (E)-1-(7-(2-((S)-4-(4-chlorophenyl)-2,3,9-trimethyl-6H-thieno[3,2-f][1,2,4]triazolo[4,3-a][1,4]diazepin-6-yl)acetyl)-3,7-diazabicyclo[3.3.1]nonan-3-yl)-4-(4-methoxyphenyl)but-2-ene-1,4-dione]			100 to 1000 nM	100 to 1000 nM
COc1ccc(C(=O)/C=C/C(=O)N2CC3CN(C(=O)C[C@@H]4N=C(c5ccc(Cl)cc5)c5c(sc(C)c5C)-n5c(C)nnc54)CC3C2)cc1 (stereo partly drawn) [Compound 230, (E)-1-(5-(2-((S)-4-(4-chlorophenyl)-2,3,9-trimethyl-6H-thieno[3,2-f][1,2,4]triazolo[4,3-a][1,4]diazepin-6-yl)acetyl)hexahydropyrrolo[3,4-c]pyrrol-2(1H)-yl)-4-(4-methoxyphenyl)but-2-ene-1,4-dione]	10 to 100 nM	10 to 100 nM		
COc1ccc(C(=O)/C=C/C(=O)N2CCC3(CC2)CN(C(=O)C[C@@H]2N=C(c4ccc(Cl)cc4)c4c(sc(C)c4C)-n4c(C)nnc42)CCO3)cc1 [Compound 231, (S,E)-1-(4-(2-(4-(4-chlorophenyl)-2,3,9-trimethyl-6H-thieno[3,2-f][1,2,4]triazolo[4,3-a][1,4]diazepin-6-yl)acetyl)-1-oxa-4,9-diazaspiro[5.5]undecan-9-yl)-4-(4-methoxyphenyl)but-2-ene-1,4-dione]	10 to 100 nM	1 to 10 nM		
COc1ccc(C(=O)/C=C\C(=O)N2CCN(C(=O)C[C@@H]3N=C(c4ccc(Cl)cc4)c4c(sc(C)c4C)-n4c(C)nnc43)CC2)cc1 [Compound 232, (S,Z)-1-(4-(2-(4-(4-chlorophenyl)-2,3,9-trimethyl-6H-thieno[3,2-f][1,2,4]triazolo[4,3-a][1,4]diazepin-6-yl)acetyl)piperazin-1-yl)-4-(4-methoxyphenyl)but-2-ene-1,4-dione]	10 to 100 nM	10 to 100 nM		
COc1ccc(C(=O)/C=C/C(=O)N2CCN(C(=O)C[C@@H]3N=C(c4ccc(Cl)cc4)c4c(sc(C)c4C)-n4c(C)nnc43)CC2)c(F)c1 [Compound 233, (S,E)-1-(4-(2-(4-(4-chlorophenyl)-2,3,9-trimethyl-6H-thieno[3,2-f][1,2,4]triazolo[4,3-a][1,4]diazepin-6-yl)acetyl)piperazin-1-yl)-4-(2-fluoro-4-methoxyphenyl)but-2-ene-1,4-dione]	< 100 nM	< 100 nM		
COc1ccc(C(=O)/C=C/C(=O)N[C@H]2C[C@H](NC(=O)CC3N=C(c4ccc(Cl)cc4)c4c(sc(C)c4C)-n4c(C)nnc43)C2)c(F)c1 (stereo partly drawn) [Compound 234, (E)-N-((1S,3r)-3-(2-((S)-4-(4-chlorophenyl)-2,3,9-trimethyl-6H-thieno[3,2-f][1,2,4]triazolo[4,3-a][1,4]diazepin-6-yl)acetamido)cyclobutyl)-4-(2-fluoro-4-methoxyphenyl)-4-oxobut-2-enamide]	50 nM	150 nM		
COc1cc(F)ccc1C(=O)/C=C/C(=O)N1CCN(C(=O)C[C@@H]2N=C(c3ccc(Cl)cc3)c3c(sc(C)c3C)-n3c(C)nnc32)CC1 [Compound 235, (S,E)-1-(4-(2-(4-(4-chlorophenyl)-2,3,9-trimethyl-6H-thieno[3,2-f][1,2,4]triazolo[4,3-a][1,4]diazepin-6-yl)acetyl)piperazin-1-yl)-4-(4-fluoro-2-methoxyphenyl)but-2-ene-1,4-dione]	< 100 nM	< 100 nM		
COc1ccc(C(=O)/C=C/C(=O)N[C@H]2C[C@H](NC(=O)C[C@@H]3N=C(c4ccc(Cl)cc4)c4c(sc(C)c4C)-n4c(C)nnc43)C2)cc1F [Compound 236, (E)-N-((1S,3r)-3-(2-((S)-4-(4-chlorophenyl)-2,3,9-trimethyl-6H-thieno[3,2-f][1,2,4]triazolo[4,3-a][1,4]diazepin-6-yl)acetamido)cyclobutyl)-4-(3-fluoro-4-methoxyphenyl)-4-oxobut-2-enamide]	90 nM	190 nM		
COc1ccc(C(=O)/C=C/C(=O)N2CCN(C(=O)C[C@@H]3N=C(c4ccc(Cl)cc4)c4c(sc(C)c4C)-n4c(C)nnc43)CC2)cc1F [Compound 237, (S,E)-1-(4-(2-(4-(4-chlorophenyl)-2,3,9-trimethyl-6H-thieno[3,2-f][1,2,4]triazolo[4,3-a][1,4]diazepin-6-yl)acetyl)piperazin-1-yl)-4-(3-fluoro-4-methoxyphenyl)but-2-ene-1,4-dione]	< 100 nM	< 100 nM		
Cc1sc2c(c1C)C(c1ccc(Cl)cc1)=N[C@@H](CC(=O)N1CCN(C(=O)/C=C/C(=O)c3ccc(C#N)cc3)CC1)c1nnc(C)n1-2 [Compound 238, (S,E)-4-(4-(4-(2-(4-(4-chlorophenyl)-2,3,9-trimethyl-6H-thieno[3,2-f][1,2,4]triazolo[4,3-a][1,4]diazepin-6-yl)acetyl)piperazin-1-yl)-4-oxobut-2-enoyl)benzonitrile]		< 100 nM	100 to 1000 nM	
Cc1sc2c(c1C)C(c1ccc(Cl)cc1)=N[C@@H](CC(=O)N1CCN(C(=O)/C=C/C(=O)c3cccc(C#N)c3)CC1)c1nnc(C)n1-2 [Compound 239, (S,E)-3-(4-(4-(2-(4-(4-chlorophenyl)-2,3,9-trimethyl-6H-thieno[3,2-f][1,2,4]triazolo[4,3-a][1,4]diazepin-6-yl)acetyl)piperazin-1-yl)-4-oxobut-2-enoyl)benzonitrile]			100 to 1000 nM	100 to 1000 nM
COc1ccc(C(=O)/C=C/C(=O)N2CCN(C(=O)C[C@@H]3N=C(c4ccc(Cl)cc4)c4c(sc(C)c4C)-n4c(C)nnc43)CC2)c(Cl)c1 [Compound 240, (S,E)-1-(2-chloro-4-methoxyphenyl)-4-(4-(2-(4-(4-chlorophenyl)-2,3,9-trimethyl-6H-thieno[3,2-f][1,2,4]triazolo[4,3-a][1,4]diazepin-6-yl)acetyl)piperazin-1-yl)but-2-ene-1,4-dione]	< 10 nM	10 to 100 nM		
COc1ccc(C(=O)/C=C/C(=O)N[C@H]2C[C@H](NC(=O)C[C@@H]3N=C(c4ccc(Cl)cc4)c4c(sc(C)c4C)-n4c(C)nnc43)C2)c(Cl)c1 [Compound 241, (E)-4-(2-chloro-4-methoxyphenyl)-N-((1S,3r)-3-(2-((S)-4-(4-chlorophenyl)-2,3,9-trimethyl-6H-thieno[3,2-f][1,2,4]triazolo[4,3-a][1,4]diazepin-6-yl)acetamido)cyclobutyl)-4-oxobut-2-enamide]	90 nM	180 nM		
